Legend:
[1] = SmartCube / behavioral platform total activity and Class signature; assay type: in vivo
Description: In some embodiments, one or more techniques described herein may quantify at least one activity score that may be quantified based on a discriminability score between at least two datasets, where the discriminability score may refer to an accuracy of a classifier, or a quantity derived therefrom. At least one dataset is a control group. In some embodiments, one or more techniques described herein may quantify at least one similarity value, which is the complement of the at least one activity value, where at least two groups are compared.
In some embodiments, one or more techniques described herein may calculate the activity score between the two groups using, for example, without limitation, a binary machine learning classifier. In some embodiments, a discriminability score of the at least two groups, as assessed by the classifier, may be used as the at least one activity score, representing how phenotypically different the two groups are. For example, the at least two groups may refer to a treatment group and a vehicle group associated with the at least two datasets.
In some embodiments, one or more techniques described herein may utilize a machine learning algorithm to perform the following steps: obtaining a plurality of subsamples, where a number, k, of iterations of the plurality of subsamples of a larger group match sample size n of a smaller group. […]

[2] = psychedelic-related behaviors (HTR, ESH, ELO) in behavioral platform videos; assay type: in vivo, mice
Description: FIG. 71 illustrates a response curve for R-(−)-4-iodo-2,5-dimethoxyamphetamine (DOI), showing anxiolytic, another therapeutic signal, and the head twitch response (HTR) in accordance with one or more embodiments of the present disclosure. FIG. 71 represents a signature of DOI in a behavioral platform, where multiple classes can be collapsed into a few classes of interest. For example, multiple classes can be collapsed into five classes of interest for simplicity.
In some embodiments, the first step may be to generate a collection of ground-truth examples by manually identifying features corresponding to behaviors of interest (e.g., using a labelling software or platform to add labels identifying such features). Each experimental session can be recorded in terms of precise start and end frame which can set the predefined duration of the experimental session. For manual identification purposes, the system may use a top camera view, at a 50% slower viewing speed, although other angles from the other cameras and other sensors such as piezoelectric and thermal sensors may also be used, and the resulting data integrated. Class analysis (e.g., FIG. 71), on the other hand, may include data acquired from all sensors of a behavioral platform.
The disclosed embodiments can extract behavioral features corresponding to exemplary behaviors. The disclosed embodiments are not limited to any particular implementation of these features. In some embodiments, a behavioral feature can be implemented as a time-stamped indication that a behavior occurred at that time, or a Boolean value in a time series indicating the occurrence of a behavior. In some embodiments, a training dataset including observational data and corresponding, manually identified features can be used to train the machine learning classifier.
FIG. 76 illustrates graphs illustrating a quantification of psychedelic-related behaviors detected in behavioral platform videos: ear scratch with hind paw (ESH), head twitch response (HTR), and elongation-contraction (ELO) for LSD and DOI at two doses in accordance with one or more embodiments of the present disclosure. FIG. 76 indicates a number of occurrences of HTRs, ESH, and ELOs, in behavioral platform videos of mice treated with DOI, LSD or vehicle, in triplicates, were recorded during the periods of rest for a total of 12 minutes for each subject.

[3] = SmartCube diagonal index (DD) similarity ranking and psychedelic profile; assay type: in vivo; settings: ranked among 90 reference drugs
Description: The similarity score for each of the dose-dose pairs of the T and R drugs was computed and used to calculate the diagonal index for each T-R drug pair or DDTiRj. For each Ti drug, the Rj drugs were then ranked by the corresponding DDTiRj.

[4] = pEEG deep learning drug class classifier; assay type: in vivo; settings: classifier trained with a set that did not include the drug, FIG. 25
Description: Briefly, the network may be based on a bidirectional Long Short-Term Memory (LSTM, 32 hidden units) layer, two fully connected layers (“elu and “softmax” activations), batch normalization and dropout layers. The model may be trained using cross-entropy loss function and “adam” optimizer, for at least 30-50 epochs. The last layer of the model may be a dense layer, which may provide probabilities for more than a dozen drug classes.
In some embodiments, to improve the robustness of the predictive model, independent implementations of a general model architecture may be built by randomly initializing the weights for the RNN. Final predictions may be derived from the model with highest accuracy, or from the average such as the median or mean results from all trained models. To check the accuracy of the resulting model system, different cross validation approaches may be used such as a n-samples-out, or n-doses-out, and/or a whole-drug-out, where an n-samples subset, an n-doses subset, and/or a whole drug, respectively, may be systematically removed from the training dataset, and the rest of the drugs may be used for training a new model. The excluded data may then be used for model validation as a test set. Model prediction may be done at a sample level, so as to get a prediction for a given drug-dose. […]

[5] = tested on: Q175 heterozygous (HET) mice model of Huntington Disease; test: DBSA query with Q175 HET target signature; assay type: in vivo; settings: Q175 HET at 6 months vs WT
Description: In some embodiments, illustrative computing devices of present disclosure can be programmed with one or more techniques of the present disclosure to screen active reference compounds against an animal model of a neurodegenerative disease. As an example, in an application of DBSA, the Q175 heterozygous (HET) mice model of Huntington Disease was used to generate a target signature. Male and female cohorts of the Q175 HET model mice at 6 months were compared against the associated wild type (WT) controls. The DBSA Target signature model for the Q175 HET at 6 months is, for example, illustrated in FIG. 56. The target signature was used to query a database containing list signatures for reference compounds profiled at multiple doses.
(§1) Of interest was the identification of the atypical antidepressant tianeptine, currently not used for the treatment of HD in the clinic. […] A control group of WT mice was treated equally with saline. […] The beneficial effect of tianeptine was quantified using DRFA, which transforms the original subject feature profile to a non-redundant, decorrelated ranked 2D features space. The non-redundant decorrelated ranked features space was used to calculate the discrimination between control (WT treated with saline) and disease group (Q175 HET group treated with saline). The disease group (Q175 HET) treated with tianeptine was then projected onto this 2D space and its proximity to the control group was calculated.

[6] = DBSA query with scopolamine target signature; assay type: in vivo
Description: In some embodiments, illustrative computing devices of the present disclosure can be programmed with one or more techniques of the present disclosure to identify a novel cognitive enhancer compound by querying a large library of compounds profiled in by a behavioral platform. This example is based on a hypothesis that compounds with a drug-induced behavioral data profile that is reversed to that of scopolamine, which impairs cognition, are potentially cognitive enhancers. Other ways to impair cognition, such as other drugs or genetic manipulations, can be used to generate similar hypotheses.
The target signature was used to query a library of list signatures associated with active library and reference compounds to rank the compounds by their capacity to reverse the behavioral response to scopolamine.

Q175 HET mice = test: treatment of Q175 HET mice, recovery quantified using DRFA; assay type: in vivo; settings: 20 mg/kg, FIG. 62
Description: as §1

[7] = eye temperature by automated thermographic system of behavioral platform; assay type: in vivo, mice; settings: various doses, FIG. 39
Description: In some embodiments, with regard to image calibration, in an experimental session, actual Peltier temperatures may be logged and saved along with the thermal camera video. The logged Peltier temperatures in Celsius can be paired to the optical density (OD) levels measured at the two Peltier ROIs in each corresponding frame, so that a linear calibration curve can be used to convert the OD of measured eye ROIs to degrees Celsius.
In some embodiments, the subject body, such as a mouse, can be segmented based on the optical density distribution on each frame. The contour of the mouse can be masked by finding the largest eight-connected objects in the binarized image as shown in FIG. 36. […] The size of the eye region relative to the mask and shape properties such as ‘Eccentricity’ (ratio of the distance between the foci of the ellipse and its major axis length) and ‘Solidity’ (proportion of the pixels in the convex hull that are also in the region, computed as Area/ConvexArea) can be measured to filter out false positives, when those parameters may be outside of the range learned from manually annotated ground truth examples.
In some embodiments, with regard to feature extraction, the average OD of automatically detected eye ROIs can be converted to Celsius based on the calibration curve. […]

[8] = periods of rest, total 12 minutes per subject, vs vehicle, two doses, FIG. 76

## COc1cc(C[C@@H](C)N)c(OC)cc1I [DOI, R-(−)-4-iodo-2,5-dimethoxyamphetamine]
[1]; FIG. 71, classes collapsed into five classes
  class signal of behavioral platform classifier: predominant anxiolytic therapeutic signal
[2]; FIG. 71, two doses
  head twitch response (HTR) dose-response: high at both doses
[2]; [8]
  number of occurrences of HTRs: most robust increase
  number of occurrences of ear scratches (ESH): most robust increase

## CN1C(=O)CN=C(c2ccccc2)c2cc(Cl)ccc21 [diazepam]
[3]
  rank of diagonal index DDTT (similarity of a second run to a previous run of the same drug): third out of 90

## CC(NC(C)(C)C)C(=O)c1cccc(Cl)c1 (centres unmarked) [bupropion]
[4]
  therapeutic class signature by pEEG classifier: more stimulant profile
[5]
  DBSA prediction against Q175 HET target signature: top predictions

## COC(=O)C(c1ccccc1)C1CCCCN1 (centres unmarked) [methylphenidate]
[5]
  DBSA prediction against Q175 HET target signature: top predictions

## CN(C)CCC=C1c2ccccc2CCc2ccccc21 [Amitriptyline]
[4]
  therapeutic class signature by pEEG classifier: clean antidepressant signal

## CN1[C@@H]2C[C@@H](OC(=O)[C@H](CO)c3ccccc3)C[C@H]1[C@@H]1O[C@@H]12 [scopolamine]
[6]; FIG. 59, at a different dose than the one used for the DBSA model
  DBSA similarity to scopolamine target signature: among the most similar compounds

## CN1c2ccccc2C(NCCCCCCC(=O)O)c2ccc(Cl)cc2S1(=O)=O (centres unmarked) [tianeptine]
[5]
  DBSA prediction against Q175 HET target signature: novel prediction
Q175 HET mice; acutely
  rescue of behavioral phenotype of Q175 HET mice: significantly rescued the behavioral phenotype
Q175 HET mice; chronically (4-week regimen)
  rescue of behavioral phenotype of Q175 HET mice: significantly rescued the behavioral phenotype

## COc1cc2c(cc1OC)C(=O)C(CC1CCN(Cc3ccccc3)CC1)C2 (centres unmarked) [donepezil]
[6]; FIG. 60
  DBSA reverse list signature to scopolamine target signature: among the top reverse list signature predictions

## CNC(C)Cc1ccc2c(c1)OCO2 (centres unmarked) [MDMA, 3,4-methylenedioxymethamphetamine]
[7]
  eye temperature: dose-dependent increase of eye temperature

## NC(=O)C[S+]([O-])C(c1ccccc1)c1ccccc1 (centres unmarked) [modafinil]
[5]
  DBSA prediction against Q175 HET target signature: top predictions

## CCN(CC)C(=O)[C@@H]1C=C2c3cccc4[nH]cc(c34)C[C@H]2N(C)C1 [LSD, lysergic acid diethylamide]
[1]; calculated against vehicle control, activity rescaled 0% to 100%, threshold 70%, FIG. 64
  total activity as a function of dose: only the 3 mg/kg and 5 mg/kg being different from vehicle in a statistically significant manner
[3]
  rank of diagonal index DDTT (similarity of a second run to a previous run of the same drug): very high
[2]; [8]
  number of occurrences of ear scratches (ESH): did not result in occurrences of ear scratches
  number of occurrences of elongation-contraction (ELO): significant increase in the number of ELOs
